15 compounds from ChEMBL document CHEMBL1201862, “PubChem BioAssay data set” (2004) can be followed below.

Some test systems named below: UACC-62; KM12; MDA-MB-231; SK-OV-3; NCI-H460; TK-10; NCI-H226; MCF7; HCT-116; COLO 205; T47D; U-251; RPMI-8226; IGROV-1.
What all share (assay): DTP human tumour cell line panel, 48 h

Structures are written as SMILES.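 A five-concentration, 48-hour dose response in 96-well plates underlies each endpoint, interpolated linearly between surrounding concentrations. Here, GI50 denotes the concentration required for 50% inhibition of growth.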 The source made the active and inactive calls. Cut-off read from the data, not from the text of the source: active = GI50 up to about 1.1 µM and inactive = higher.

Turning to `COc1ccc(C2C3=C(COC3=O)Oc3cc4c(cc32)OCO4)cc1OC` (stereo not drawn), the concentration for 50% growth inhibition (GI50) was 0.859 µM (active) with UACC-62; 0.301 µM (active) in the assay with KM12; 3.4 µM (inactive) in the assay on MDA-MB-231; 0.75 µM (active) in the assay with SK-OV-3; 0.547 µM (active) in the assay on NCI-H460; 12.1 µM (inactive) in the assay on TK-10. In addition, the GI50 is 4.65 µM (inactive) with NCI-H226; 0.408 µM (active) in the assay with MCF7; 0.465 µM (active) with HCT-116; 0.879 µM (active) in the assay with COLO 205; 10.1 µM (inactive) with T47D; 0.785 µM (active) with U-251. The 50% growth inhibitory concentration (GI50) with RPMI-8226 was 0.447 µM (active); with IGROV-1, 0.713 µM (active).
As to `COc1ccccc1NC(=O)O/N=C(/Cl)C(C)C`, the GI50 was 17.5 µM (inactive) in the assay with UACC-62; 20.2 µM (inactive) with KM12; 7.19 µM (inactive) in the assay with MDA-MB-231; 18.7 µM (inactive) with SK-OV-3; 19.3 µM (inactive) with NCI-H460; 13.6 µM (inactive) in the assay on TK-10. In addition, the GI50 in the assay with NCI-H226 is 20.8 µM (inactive); in the assay on MCF7, > 10 µM (inactive); in the assay with HCT-116, 14.1 µM (inactive); with COLO 205, 2.4 µM (inactive); with T47D, 21 µM (inactive); in the assay with U-251 it was 16.7 µM (inactive). In addition, the GI50 in the assay with RPMI-8226 was 2.1 µM (inactive); with IGROV-1, 16.7 µM (inactive).
For `COc1ccc2[nH]c3c(C)c4ccnc(NCCCN(C)CCCN)c4c(C)c3c2c1`, the GI50 in the assay with UACC-62 was 0.22 µM (active); with KM12, 0.258 µM (active); with MDA-MB-231 it was 0.0873 µM (active); in the assay with SK-OV-3, 0.838 µM (active); in the assay with NCI-H460, 0.091 µM (active); in the assay with TK-10, 0.166 µM (active). The GI50 in the assay on NCI-H226 was 0.0458 µM (active); with MCF7 it was 0.0263 µM (active); in the assay on HCT-116 it was 0.107 µM (active); in the assay with COLO 205 it was 0.0778 µM (active); in the assay with T47D, 0.213 µM (active); in the assay on U-251, 0.0803 µM (active). The GI50 was 0.281 µM (active) in the assay on RPMI-8226 and 0.165 µM (active) with IGROV-1.
For `CC(C)=CCc1c(O)c(CC=C(C)C)c2oc3c(c(=O)c2c1O)C(C=C(C)C)Oc1cc(O)ccc1-3` (stereo not drawn), the GI50 in the assay on UACC-62 was 6.37 µM (inactive); in the assay with KM12, 2.94 µM (inactive); with MDA-MB-231, 12.4 µM (inactive); with SK-OV-3, 14.7 µM (inactive); in the assay with NCI-H460 it was 4.49 µM (inactive); in the assay on TK-10, 4.17 µM (inactive). Further, the GI50 was 20.5 µM (inactive) in the assay on NCI-H226; 4.98 µM (inactive) in the assay on MCF7; 3.74 µM (inactive) in the assay on HCT-116; 16 µM (inactive) in the assay on COLO 205; 3.5 µM (inactive) in the assay on T47D; 4.78 µM (inactive) in the assay with U-251. Besides, the GI50 in the assay on RPMI-8226 was 3.76 µM (inactive); in the assay with IGROV-1, 7.53 µM (inactive).
On to `Oc1ccc(/N=N/c2ccc(Cl)cc2)cc1`, for which the GI50 with UACC-62 is 11.9 µM (inactive); in the assay on KM12, 13 µM (inactive); in the assay with MDA-MB-231, 10.8 µM (inactive); in the assay with SK-OV-3, 21.9 µM (inactive); in the assay with NCI-H460 it was 16.9 µM (inactive); in the assay with TK-10, 18.1 µM (inactive). For the same compound, the GI50 in the assay with NCI-H226 was 17.7 µM (inactive); with MCF7 it was 17.7 µM (inactive); in the assay with HCT-116, 15.9 µM (inactive); with COLO 205 it was 18.4 µM (inactive); in the assay on T47D, 15 µM (inactive); in the assay with U-251, 15.4 µM (inactive). In addition, the GI50 is 24.2 µM (inactive) with RPMI-8226 and 12.9 µM (inactive) with IGROV-1.
Take `Oc1cc(Br)cc2cc(Br)cnc12`: the GI50 is 2.05 µM (inactive) in the assay on UACC-62; 5.38 µM (inactive) in the assay on KM12; 12.2 µM (inactive) in the assay on MDA-MB-231; 39.2 µM (inactive) in the assay on SK-OV-3; 1.3 µM (inactive) in the assay with NCI-H460; 43 µM (inactive) in the assay with TK-10. Also, the GI50 in the assay on NCI-H226 was 15.3 µM (inactive); in the assay on MCF7, 5.35 µM (inactive); with HCT-116, 2.11 µM (inactive); in the assay on COLO 205, 32.3 µM (inactive); in the assay with T47D it was 2.8 µM (inactive); in the assay with RPMI-8226, 2.63 µM (inactive). In the assay with IGROV-1, the GI50 is 1.14 µM (inactive).
For `Cc1ccc(O)c(C(c2cc(C)ccc2O)c2cc([N+](=O)[O-])ccc2O)c1`, the GI50 in the assay on UACC-62 was 15.9 µM (inactive); in the assay on KM12 it was 7.74 µM (inactive); with MDA-MB-231, 0.0604 µM (active); in the assay with SK-OV-3, 17.7 µM (inactive); with TK-10, 17.4 µM (inactive); in the assay on NCI-H226 it was 14.4 µM (inactive). Moreover, the GI50 in the assay with MCF7 was 14.5 µM (inactive); with HCT-116 it was 24.6 µM (inactive); with COLO 205 it was 17.8 µM (inactive); in the assay with T47D, 16.9 µM (inactive); in the assay on U-251, 15.7 µM (inactive); in the assay with RPMI-8226, 13.7 µM (inactive). Also, the GI50 in the assay on IGROV-1 is 10.3 µM (inactive).
`CC(C)(C)OC(=O)NCCCCCCC(=O)Cc1ccccc1`: the GI50 with KM12, in the assay with MDA-MB-231, in the assay with SK-OV-3, with NCI-H460, with TK-10 and in the assay with NCI-H226 was > 100 µM (inactive) each time. Besides, the GI50 in the assay on MCF7 is > 100 µM (inactive); in the assay with HCT-116 it was 84.3 µM (inactive); in the assay on COLO 205, 75.2 µM (inactive); with T47D, > 100 µM (inactive); in the assay on U-251 it was > 100 µM (inactive); with RPMI-8226, > 100 µM (inactive). For the same compound, in the assay on IGROV-1, the GI50 is > 100 µM (inactive).
`COc1cccc(/C=N/NC(=O)CSCC(=O)N/N=C/c2cccc(OC)c2OC)c1OC`: the GI50 in the assay on UACC-62, in the assay on KM12, in the assay with MDA-MB-231, in the assay with SK-OV-3, in the assay on NCI-H460 and in the assay on TK-10 was > 100 µM (inactive) each time. Besides, the GI50 with NCI-H226, in the assay with MCF7, in the assay on HCT-116, in the assay with COLO 205, with T47D and with U-251 was > 100 µM (inactive) throughout. The GI50 in the assay with RPMI-8226 and in the assay with IGROV-1 was > 100 µM (inactive) throughout.
In the case of `C/C(=N\NC(=S)NCc1ccccc1)c1nc2cccnc2[nH]1`, the GI50 in the assay on UACC-62 was 6.53 µM (inactive); in the assay with KM12, 6.34 µM (inactive); in the assay on MDA-MB-231, 17.3 µM (inactive); in the assay with SK-OV-3 it was 10.4 µM (inactive); in the assay on NCI-H460 it was 4.29 µM (inactive); in the assay on TK-10, 15.2 µM (inactive). Besides, the GI50 with NCI-H226 is 4.44 µM (inactive); in the assay on MCF7, 3.53 µM (inactive); with HCT-116, 3.69 µM (inactive); with COLO 205, 14.5 µM (inactive); with T47D, 9.1 µM (inactive); in the assay with U-251 it was 5.3 µM (inactive). The values for the GI50 in the assay on RPMI-8226 and with IGROV-1 were 11.5 µM (inactive) and 8 µM (inactive), respectively.
For the compound `CC(=O)OC1COC(n2nc(/C=C/c3ccc(Cl)cc3)c(=O)n(/N=C/c3ccccc3)c2=S)C(OC(C)=O)C1OC(C)=O` (stereo not drawn), the GI50 in the assay with UACC-62, in the assay with KM12, in the assay on MDA-MB-231, in the assay on SK-OV-3, in the assay on NCI-H460 and with TK-10 was > 100 µM (inactive) each time. The GI50 with NCI-H226, in the assay on MCF7, with HCT-116, with COLO 205, in the assay on T47D and in the assay with U-251 was > 100 µM (inactive) in each case. In addition, the GI50 in the assay on RPMI-8226 and in the assay with IGROV-1 was > 100 µM (inactive) each time.
Turning to `O=C(c1ccccc1)N1CCC(Nc2nccs2)O1` (stereo not drawn), the GI50 with MDA-MB-231, in the assay with SK-OV-3, in the assay on NCI-H460, in the assay on TK-10, in the assay on NCI-H226 and with MCF7 was > 10 µM (inactive) in each case. Further, the GI50 in the assay on HCT-116, in the assay on COLO 205, in the assay with T47D, in the assay on RPMI-8226 and in the assay on IGROV-1 was > 10 µM (inactive) each time.
As for `N=C(N)NCCCC(NC(=O)OCCCCn1ccc(N)nc1=O)C(=O)O` (stereo not drawn), the GI50 in the assay with UACC-62, in the assay with KM12, with MDA-MB-231, in the assay on SK-OV-3, in the assay on NCI-H460 and with TK-10 was > 100 µM (inactive) in each case. Also, the GI50 in the assay on NCI-H226 was 4.26 µM (inactive); in the assay on MCF7 it was > 100 µM (inactive); with HCT-116, > 100 µM (inactive); in the assay with COLO 205, > 100 µM (inactive); with T47D it was > 100 µM (inactive); in the assay with U-251 it was > 100 µM (inactive). Besides, the GI50 in the assay on RPMI-8226 and with IGROV-1 was > 100 µM (inactive) in each case.
As for `CCN1CCC(O)(c2ccc(Oc3ccc(F)cc3)cc2)C(C(=O)c2ccc(Oc3ccc(F)cc3)cc2)C1` (stereo not drawn), the GI50 was 14.8 µM (inactive) in the assay on UACC-62; 4.42 µM (inactive) in the assay with KM12; 13.2 µM (inactive) with MDA-MB-231; 17.8 µM (inactive) in the assay with SK-OV-3; 11 µM (inactive) in the assay on TK-10; 13.6 µM (inactive) with NCI-H226. Moreover, the GI50 was 11.5 µM (inactive) in the assay on MCF7; 13.6 µM (inactive) in the assay on HCT-116; 16.6 µM (inactive) with COLO 205; 13.4 µM (inactive) in the assay on T47D; 16.2 µM (inactive) in the assay with U-251; 2.79 µM (inactive) in the assay on RPMI-8226. Also, the GI50 with IGROV-1 was 11 µM (inactive).
For the compound `Nc1ccn(C=C=CCO)c(=O)n1`, the GI50 with UACC-62, in the assay with KM12, in the assay on MDA-MB-231, with SK-OV-3, in the assay with NCI-H460 and in the assay with TK-10 was > 100 µM (inactive) in each case. The GI50 is > 100 µM (inactive) in the assay on NCI-H226; > 100 µM (inactive) with MCF7; > 100 µM (inactive) in the assay on HCT-116; > 100 µM (inactive) in the assay with COLO 205; > 93.8 µM (inactive) in the assay on T47D; > 100 µM (inactive) with U-251. Also, the GI50 in the assay on RPMI-8226 is 589 µM (inactive); in the assay on IGROV-1, > 100 µM (inactive).
